Laboratory results taken from ChEMBL document CHEMBL3817798, “Cholecystokinin-1 receptor antagonists: 5-hydroxy-5-aryl-pyrrol-2-ones as anticancer agents” (Medchemcomm, 2016).
The source made the active and inactive calls. No cut-off for these calls is given here.

Experiments:
[1] = Displacement of [125]I-CCK-8 from CCK-B receptor in guinea pig cerebral cortex after 2 hrs by gamma counting; format: tissue-based, Cavia porcellus
[2] = target: T1, Cholecystokinin receptor type A (Rattus norvegicus, UniProt P30551); assay: Displacement of [125]I-CCK-8 from CCK-A receptor in rat pancreatic membrane after 2 hrs by gamma counting; format: cell membranes
T1 sequence (P30551 whole entry): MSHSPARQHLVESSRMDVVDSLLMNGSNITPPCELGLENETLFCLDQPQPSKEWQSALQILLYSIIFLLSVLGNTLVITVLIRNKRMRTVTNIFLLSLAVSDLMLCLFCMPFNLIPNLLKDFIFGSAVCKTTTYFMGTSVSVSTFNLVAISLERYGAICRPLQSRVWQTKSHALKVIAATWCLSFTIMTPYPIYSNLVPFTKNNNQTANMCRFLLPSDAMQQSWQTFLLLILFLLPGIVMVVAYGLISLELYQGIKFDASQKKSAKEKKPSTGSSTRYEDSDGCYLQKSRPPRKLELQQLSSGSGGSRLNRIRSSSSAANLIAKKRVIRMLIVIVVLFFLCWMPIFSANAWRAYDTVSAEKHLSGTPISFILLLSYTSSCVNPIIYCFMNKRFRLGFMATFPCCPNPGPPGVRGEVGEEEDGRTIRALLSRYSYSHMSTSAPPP

[3] = Oral bioavailability in rat; format: ADME, organism-based; settings: in vivo
[4] = Half life in rat; format: ADME, organism-based; settings: in vivo
[5] = Antiproliferative activity against human MiaPaCa cells assessed as reduction in cell viability after 3 days by MTT assay; format: functional, cell-based; settings: MIA PaCa-2, 72 h
AGS = assay: Antiproliferative activity against human AGS cells assessed as reduction in cell viability after 3 days by MTT assay; format: functional, cell-based; settings: 72 h
[6] = Antiproliferative activity against human PANC cells assessed as reduction in cell viability after 3 days by MTT assay; format: functional, cell-based; settings: 72 h
[7] = Antiproliferative activity against human U373MG cells assessed as reduction in cell viability after 3 days by MTT assay; format: functional, cell-based, U-373MG ATCC; settings: U373 MG, 72 h
MAC13 = assay: Antiproliferative activity against mouse MAC13 cells assessed as reduction in cell viability after 3 days by MTT assay; format: functional, cell-based; settings: MAC13, 72 h
MAC16 [8] = assay: Antiproliferative activity against mouse MAC16 cells assessed as reduction in cell viability after 3 days by MTT assay; format: functional, cell-based; settings: MAC16, 72 h
MAC16 [9] = assay: Antitumor activity against mouse MAC16 cells xenografted in po dosed NSG mouse measured thrice weekly after compound dosage; format: functional, organism-based
MiaPaCa = assay: Antitumor activity against human MiaPaCa cells xenografted in po dosed NSG mouse measured thrice weekly after compound dosage; format: functional, organism-based
MAC16 [10] = assay: Antimetastatic activity against mouse MAC16 cells xenografted in po dosed NSG mouse assessed as reduction of cell migration to lung measured thrice weekly after compound dosage; format: functional, organism-based
[11] = target: T2, Cholecystokinin receptor type A (Rattus norvegicus) (UniProt P30551); assay: Antagonist activity at CCK1 receptor in rat duodenum assessed as inhibition of electrically stimulated contraction
T2 sequence (whole entry): T1 sequence (P30551 whole entry)

[12] = target: T3, Cholecystokinin receptor type A (Cavia porcellus) (UniProt Q63931); assay: Insurmountable antagonist activity at CCK1 receptor in guinea pig bladder assessed as inhibition of CCK8s induced contraction preincubated 10 mins followed by CCK8s addition
T3 sequence (whole entry): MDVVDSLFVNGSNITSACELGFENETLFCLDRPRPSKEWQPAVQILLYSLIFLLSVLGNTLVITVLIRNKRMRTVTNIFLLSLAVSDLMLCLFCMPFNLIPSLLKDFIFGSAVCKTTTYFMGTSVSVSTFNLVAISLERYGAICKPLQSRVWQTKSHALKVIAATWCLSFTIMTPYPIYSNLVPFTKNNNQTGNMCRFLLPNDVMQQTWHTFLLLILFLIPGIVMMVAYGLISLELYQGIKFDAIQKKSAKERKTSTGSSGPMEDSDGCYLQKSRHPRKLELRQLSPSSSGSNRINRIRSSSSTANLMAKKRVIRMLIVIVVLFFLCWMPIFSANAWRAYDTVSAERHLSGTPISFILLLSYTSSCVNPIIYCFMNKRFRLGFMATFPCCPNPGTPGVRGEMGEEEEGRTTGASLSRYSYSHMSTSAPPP

[13] = target: T4, Cholecystokinin receptor type A (Homo sapiens) (UniProt P32238); assay: […] activity at CCK1 receptor (unknown origin)
T4 sequence (whole entry): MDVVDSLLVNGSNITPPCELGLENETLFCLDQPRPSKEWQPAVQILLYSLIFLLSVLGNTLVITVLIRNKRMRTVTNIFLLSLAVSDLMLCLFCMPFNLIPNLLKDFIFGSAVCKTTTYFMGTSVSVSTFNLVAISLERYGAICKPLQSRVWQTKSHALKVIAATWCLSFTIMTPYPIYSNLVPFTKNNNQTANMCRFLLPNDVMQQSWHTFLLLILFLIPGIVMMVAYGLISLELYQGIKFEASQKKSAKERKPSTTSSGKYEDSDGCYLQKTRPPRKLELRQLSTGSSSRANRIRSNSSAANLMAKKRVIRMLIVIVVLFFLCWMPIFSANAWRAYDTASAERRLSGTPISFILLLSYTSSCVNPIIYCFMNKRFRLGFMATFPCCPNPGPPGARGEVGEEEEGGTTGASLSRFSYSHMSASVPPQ

[14] = Potency index, ratio of lorglumide IC50 to compound IC50 for human MiaPaCa cells; format: functional

Structure (SMILES) | IC50 [1] [nM] | IC50 [2] [nM] | IC50 (AGS) [nM] | IC50 [5] [nM] | IC50 [6] [nM] | IC50 [7] [nM] | IC50 (MAC13) [nM] | IC50 (MAC16 [8]) [nM] | further results
CC(C)N1C(=O)C=C(Cl)C1(O)c1ccc(Cl)cc1 (stereo not drawn) | 3700 | 300 | – | – | – | – | – | – | –
CC(C)(C)N1C(=O)C=C(Cl)C1(O)c1ccccc1 (stereo not drawn) | 900 | 120 | – | – | – | – | – | – | –
CN1C(=O)C=C(Cl)C1(O)c1ccc(Cl)cc1 (stereo not drawn) | > 10000 | 2000 | – | – | – | – | – | – | –
CN1C(=O)C(NC(=O)c2cc3ccccc3[nH]2)N=C(c2ccccc2)c2ccccc21 (stereo not drawn) | – | – | > 5000 | 1200 | 480 | > 5000 | 1100 | 1000 | Activity [13]: Active
CC(C)CN1C(=O)C=C(Cl)C1(O)c1ccccc1 (stereo not drawn) | 1200 | 20 | 262 | 15 | 27 | 765 | 536 | 96 | TGI (MAC16 [9]): Active; TGI (MiaPaCa): Active; Ratio IC50 [14]: 20; Activity (MAC16 [10]): Active
CCCCCCN1C(=O)C=C(Cl)C1(O)c1ccc(Cl)cc1 (stereo not drawn) | > 10000 | 3600 | – | – | – | – | – | – | –
Cc1cccc(NC(=O)N[C@@H]2N=C(c3ccccc3)c3ccccc3N(C)C2=O)c1 [L-365260] | – | – | 675 | > 5000 | > 1000 | 541 | > 5000 | > 5000 | –
O=C1C=C(Cl)C(O)(c2ccc(Cl)cc2)N1C1CC1 (stereo not drawn) | > 10000 | 4000 | – | – | – | – | – | – | –
O=C1C=C(Cl)C(O)(c2ccccc2)N1Cc1ccccc1 (stereo not drawn) | 22 | 800 | 53 | 230 | 674 | 23 | > 1000 | > 1000 | –
CN1C(=O)C=C(Cl)C1(O)c1ccccc1 (stereo not drawn) | > 10000 | 2500 | – | – | – | – | – | – | –
CCCCCN(CCCCC)C(=O)C(CCC(=O)O)NC(=O)c1ccc(Cl)c(Cl)c1 (stereo not drawn) [LORGLUMIDE SODIUM] | > 10000 | 170 | 289 | 425 | 316 | > 5000 | 421 | 861 | –

Now from value to compound, other results behind:

IC50 [1] [nM] | IC50 [2] [nM] | IC50 (AGS) [nM] | Structure (SMILES) | IC50 [5] [nM] | IC50 [6] [nM] | IC50 [7] [nM] | IC50 (MAC13) [nM] | IC50 (MAC16 [8]) [nM] | further results
> 10000 | > 10000 | – | O=C1C=C(Cl)C(O)(c2ccccc2)N1C1CCCCC1 (stereo not drawn) | – | – | – | – | – | –
840 | – | – | O=C1C=C(Cl)C(O)(c2ccccc2)N1C1CCCC1 (stereo not drawn) | – | – | – | – | – | –
750 | 12 | 222 | CC(C)CN1C(=O)C=C(Cl)C1(O)c1ccc(F)cc1 (stereo not drawn) | 11 | 18 | 665 | 508 | 76 | bioavailability [3]: 98%; half-life [4]: 3.5 h; TGI (MAC16 [9]): Active; TGI (MiaPaCa): Active; Activity (MAC16 [10]): Active
400 | 8 | 242 | CC(C)CN1C(=O)C=C(Cl)C1(O)c1ccc(Cl)cc1 (stereo not drawn) | 13 | 22 | 475 | 526 | 86 | inhibition [11]: Dose-dependent effect; inhibition [12]: Dose-dependent effect
> 10000 | > 10000 | – | O=C1C=C(Cl)C(O)(c2ccccc2)N1c1ccccc1 (stereo not drawn) | – | – | – | – | – | –
10000 | – | – | O=C1C=C(Cl)C(O)(c2ccc(Cl)cc2)N1C1CCCC1 (stereo not drawn) | – | – | – | – | – | –
900 | 200 | – | CC(C)N1C(=O)C=C(Cl)C1(O)c1ccccc1 (stereo not drawn) | – | – | – | – | – | –
> 10000 | 7500 | – | O=C1C=C(Cl)C(O)(c2ccccc2)N1C1CC1 (stereo not drawn) | – | – | – | – | – | –
> 10000 | 4500 | – | CCCCCCN1C(=O)C=C(Cl)C1(O)c1ccccc1 (stereo not drawn) | – | – | – | – | – | –
